Reference: ChEMBL document CHEMBL5390314, “Repurposing Azoles to Resolve Serotogenic Toxicity Associated with Linezolid to Combat Multidrug-Resistant Tuberculosis” (ACS Med Chem Lett, 2023)
In brackets after ≈: the same amount, converted by molar mass.

Legend:
Type in all cases: functional
Settings in all cases: time 7 day
[1] = system: Mycobacterium tuberculosis; test: Anti-mycobacterial activity against Isoniazid resistant Mycobacterium tuberculosis clinical isolate harbouring inhA mutant assessed as bacterial growth inhibition incubated for 7 days by microplate alamar blue assay
[2] = system: Mycobacterium tuberculosis; test: Anti-mycobacterial activity against Isoniazid resistant Mycobacterium tuberculosis clinical isolate harbouring katG S315T mutant assessed as bacterial growth inhibition incubated for 7 days by microplate alamar blue assay
[3] = system: Mycobacterium tuberculosis; test: Anti-mycobacterial activity against Rifampicin resistant Mycobacterium tuberculosis clinical isolate harbouring rpoB S531L mutant assessed as bacterial growth inhibition incubated for 7 days by microplate alamar blue assay
[4] = system: Mycobacterium tuberculosis; test: Anti-mycobacterial activity against isoniazid, rifampicin, ethambutol and pyrazinamide-resistant Mycobacterium tuberculosis clinical isolate harbouring inhA/katG/rpoB H526D mutant assessed as bacterial growth inhibition incubated for 7 days by microplate alamar blue assay

SMILES | MIC50 [1] | MIC90 [1] | MIC50 [2] | MIC90 [2] | MIC50 [3] | MIC90 [3] | MIC50 [4] | MIC90 [4]
NNC(=O)c1ccncc1 [ISONIAZID] | 0.98 µM (≈ 0.134 µg/mL) | 1.56 µM (≈ 0.214 µg/mL) | 11.06 µM (≈ 1.52 µg/mL) | 12.5 µM (≈ 1.71 µg/mL) | 23.03 µM (≈ 3.16 µg/mL) | 25 µM (≈ 3.43 µg/mL) | >100 µM | >100 µM
Clc1ccccc1C(c1ccccc1)(c1ccccc1)n1ccnc1 [CLOTRIMAZOLE] | 0.17 µM (≈ 0.0586 µg/mL) | 0.78 µM (≈ 0.269 µg/mL) | 1.72 µM (≈ 0.593 µg/mL) | 3.12 µM (≈ 1.08 µg/mL) | 1.53 µM (≈ 0.528 µg/mL) | 3.12 µM (≈ 1.08 µg/mL) | 5.07 µM (≈ 1.75 µg/mL) | 6.25 µM (≈ 2.16 µg/mL)
CO[C@H]1/C=C/O[C@@]2(C)Oc3c(C)c(O)c4c(O)c(c(/C=N/N5CCN(C)CC5)c(O)c4c3C2=O)NC(=O)/C(C)=C\C=C\[C@H](C)[C@H](O)[C@@H](C)[C@@H](O)[C@@H](C)[C@H](OC(C)=O)[C@@H]1C [RIFAMPIN] | <0.04 µM | <0.04 µM | <0.04 µM | <0.04 µM | 28.15 µM (≈ 23.2 µg/mL) | 50 µM (≈ 41.1 µg/mL) | >100 µM | >100 µM
CC(=O)NC[C@H]1CN(c2ccc(N3CCOCC3)c(F)c2)C(=O)O1 [LINEZOLID] | 0.12 µM (≈ 0.0405 µg/mL) | 0.39 µM (≈ 0.132 µg/mL) | 0.42 µM (≈ 0.142 µg/mL) | 1.56 µM (≈ 0.526 µg/mL) | 0.24 µM (≈ 0.081 µg/mL) | 0.78 µM (≈ 0.263 µg/mL) | 0.81 µM (≈ 0.273 µg/mL) | 1.56 µM (≈ 0.526 µg/mL)
Clc1ccc(COC(Cn2ccnc2)c2ccc(Cl)cc2Cl)c(Cl)c1 (stereo not given) [MICONAZOLE] | 0.28 µM (≈ 0.117 µg/mL) | 0.78 µM (≈ 0.325 µg/mL) | 3.58 µM (≈ 1.49 µg/mL) | 6.25 µM (≈ 2.6 µg/mL) | 2.74 µM (≈ 1.14 µg/mL) | 6.25 µM (≈ 2.6 µg/mL) | 4.42 µM (≈ 1.84 µg/mL) | 6.25 µM (≈ 2.6 µg/mL)
